The source of these data is patent US20100273740A1 (priority 2004, published 2010).

Values after ≈ are worked out from the molar mass of the structure shown.

For one series, the system named is Vero cells. The experiment in a line: cells. The format is cell-based. The conditions noted are these: Chlorocebus sabaeus, read-out: Inhibitory Conc. (IC50) Cell Growth.
For series [1], the system named is Urbani strain of SARS CoV. The experiment in a line: organism not typed. The format is cell-based. The note with it: Vero, read-out: Effective Conc. (EC50) Against SARS CoV.
For a further series, the system named is SARS. The conditions noted are these: cited from earlier work.
The conditions of series [2]: cited from earlier work.
The next series deals with SARS-CoV. The conditions noted are these: cited from earlier work.
Series [3] is described as follows: Cell viability of uninfected human foreskin fibroblast drug control wells. The series is classed as cell-based. The conditions noted are these: uninfected human foreskin fibroblast cells; read-out: Cytotoxic Conc. (IC50) Cell Growth.

By IC50 is commonly meant the concentration that gives 50% inhibition. For orientation: EC50 means the concentration at which the effect is half-maximal. `CCCCCCCCCCCC(=O)NCC(COP(=O)([O-])OCC[N+](C)(C)C)OCCCC` (stereo not shown) [NHCOC11H23 OC3H6CH3 PC, 3-dodecanamido-2-butyloxypropyl-1-phosphocholine]: in the series with Vero cells, the 50% inhibitory concentration (IC50) was found to be 40 µg/mL (≈ 80.9 µM). For the same compound, the 50% effective concentration (EC50) in series [1] amounted to 3 µg/mL (≈ 6.06 µM).

For `NC(=O)c1ncn([C@@H]2O[C@H](CO)[C@@H](O)[C@H]2O)n1` [Ribavirin, 1-β-D-ribofuranosyl-1-1,2,4-triazole-3-carboxamide], the “Benefit in SARS patients” value in the series on SARS is “has not been observed to be of benefit”. Also, in series [2], the “Patients with serum amino transferase levels reduced to normal” value is recorded as 40%. Besides, the “Effect on viral serum levels” value in series [2] (patients) is “does not lower viral serum levels”.

As for interferon beta, the “Activity in vitro against SARS-CoV” value in the series on SARS-CoV is listed as “effective in vitro against SARS-CoV”.

Turning to `CCCCCCCCCCOC(CNC(=O)CCCCCCCCC)COP(=O)([O-])OCC[N+](C)(C)C` (stereo not shown) [NHCOC9H19 OC9H18CH3 PC, 3-decanamido-2-decyloxypropyl-1-phosphocholine], the 50% inhibitory concentration (IC50) in series [3] amounted to 75 µg/mL (≈ 136 µM).
